# “And” between values parts separate entries of the source, which are not always exact repeats. Identical values can stand only once.
# Experiments:
# SW480 cells = assay: DAPI staining for apoptosis, SW480; assay type: cell-based; settings: 0.5 μM, 6 hours, counted in 200 cells
# Experimental: In SW480 cells, about 60% apoptotic cells were detected when cells were treated with Compound 1 compared to less than 5% when cells were not treated with Compound 1. Apoptotic cells were counted in 200 cells.
# [1] = tested on: Nur77 interaction with Bcl-2; assay: Cell-based co-immunoprecipitation of Nur77 and Bcl-2
# Experimental: Western blotting and co-immunopreciptations (co-IP) were performed. Briefly, cells transfected with or without expression vectors for Nur77 and Bcl-2 were treated with test compounds for 2 hours. The effect of compounds on the interaction of endogenous or transfected Nur77 and Bcl-2 was analyzed by co-immunoprecipitation using appropriate antibodies. Proteins immunoprecipitated from cells by an appropriate anti-Nur77 or anti-Bcl-2 antibody were analyzed by Western blotting.
# [2] = tested on: mTOR markers p-S6 and p-4EBP1; assay: mTOR inhibition: expression of mTOR markers; assay type: cell-based; settings: MDA-MB-231 cells, 6 hours
# SW620 xenograft tumor = assay: SW620 xenograft nude mouse study; assay type: in vivo, BALB/c nude mice
# Experimental: Male BALB/c nude mice (6 weeks old) were subcutaneously injected with log growth-phase of SW620 cells (1×10^6 cells in 0.1 ml PBS). Mice were treated orally after 7 days of transplantation with Compound 1 once a day. Body weight and tumor size were measured every 3 days. Tumors were measured and weighted. Tissues isolated from the nude mice were fixed with 4% paraformaldehyde. TdT-mediated dUTP nick end labeling assay was performed according to the manufacturer's instructions (In situ Cell Death Detection Kit; Roche).
# Nur77 [3] = biological target: T1, Nur77 (Homo sapiens, UniProt P22736); assay: Nur77 expression and mitochondrial targeting with BI2030, HeLa; assay type: cell-based; settings: HeLa cells
# T1 construct: expressed in transfected cells
# Excerpt: To further characterize the effect of Compound 1 on promoting Nur77 mitochondrial targeting, we investigated the effect of Compound 1 in combination with BI2030 on Nur77 mitochondrial targeting and apoptosis induction. […] When Compound 1 and B12030 were used together, most of the BI2030-induced Nur77 protein was found in the heavy membrane fraction, and formed punctate structure in the cytoplasm, as visualized by confocal microscopy.
# HCT116 cancer cells = assay: Cell viability (MTT) assay, HCT116; assay type: cell-based; settings: Homo sapiens, HCT-116; inhibiting the growth of HCT116 cancer cells, cell viability assay (Table 5)
# Experimental: Cell viability was analyzed by using a colorimetric 3-(4,5-dimethylthiazol-[…]2-yl)-2,5-diphenyletetrazolium Bromide (MTT) assay that determines mitochondrial dehydrogenase activities in the living cells with a colorimetric method. Cells treated with test compounds were incubated with MTT and their effect on the viability of the cells was assayed by the ability of treated cells to reduce the yellow tetrazolium dye MTT to its insoluble formazan, which has a purple color. […]
# Bcl-2−/−HeLa cells = assay: Annexin V/PI staining, Bcl-2 knockout HeLa; assay type: cell-based
# Experimental: (§1) Knocking out Nur77 and Bcl-2 from HeLa cells employed the CRISPR/Cas9 system. gRNA targeting sequence of Nur77 (5′-[…]-3′) and Bcl-2 (5′-[…]-3′) was cloned into gRNA cloning vector Px330 (Addgene, 71707) and confirmed by sequencing. To screen for cells lacking Nur77 or Bcl-2, HeLa cells were transfected with control vector and gRNA expression vectors, followed by G418 selection (0.5mg/m1). Single colonies were subjected to Western blotting using anti-Nur77 and anti-Bcl-2 antibody to select knockout cells.
# The apoptotic effect of Compound lwas also evaluated in Bcl-2 genome knockout HeLa cells generated by CRISPR/Cas9 technology (Example A-5).
# Nur77−/−HeLa cells [4] = assay: Annexin V/PI staining, Nur77 knockout HeLa; assay type: cell-based
# Experimental: as §1
# (§2) The apoptotic effect of Compound lwas also evaluated in Nur77 genome knockout HeLa cells generated by CRISPR/Cas9 technology (Example A-5).
# Nur77−/−HeLa cells [5] = assay: PARP cleavage and caspase 3 activation, Nur77 knockout HeLa; assay type: cell-based
# Experimental: as §1, §2
# parental HeLa cells = assay: Annexin V/PI staining, parental HeLa; assay type: cell-based; settings: methanesulfonate
# [6] = biological target: T2, Nur77-LBD interaction with GST-Bcl-2 (Homo sapiens, UniProt P22736); assay: GST-pull down of Nur77-LBD by GST-Bcl-2; assay type: binding; settings: in vitro, GST-Bcl-2, FIG. 11
# T2 construct: incubated with purified His-Nur77-LBD (0.2 mg) in the presence of Compound 1; made in house
# Experimental: GST or GST-Bcl-2 fusion protein (0.5 mg) was immobilized on glutathione-Sepharose beads and incubated with purified His-Nur77-LBD (0.2 mg) in the presence of Compound 1 for 1 hour at room temperature to promote GST-Bcl-2 interaction with His-Nur77-LBD. Bound Nur77-LBD was analyzed by Western blotting.
# pBind-RXRa-LBD and Nur77 = assay: Mammalian one hybrid assay, Gal4-RXRa-LBD with Nur77; assay type: cell-based; settings: cotransfection of pBind-RXRa-LBD and Nur77, Dual-Luciferase (FIG. 10)
# Experimental: HEK293T cells were co-transfected with pG5 Luciferase reporter together with the plasmid encoding RXRa-LBD fused with the Gal4 DNA-binding domain and other expression plasmids. After transfection, cells were treated with DMSO or a test compound, and assayed by using the Dual-Luciferase Reporter Assay System (Promega). Transfection efficiency was normalized to Renilla luciferase activity.
# To exclude the possibility that Compound 1 acted on RXRa, Glu453 and Glu456 in the RXRa activation function 2 (AF2) region were substituted with Ala and the resulting mutant, RXRa-LBD/E453,6A, was used.
# Nur77 [7] = biological target: T1, Nur77; assay: Cellular fractionation and immunostaining: mitochondrial targeting of Nur77; assay type: cell-based
# Experimental: (§3) For cellular fractionation, cells were lysed in cold buffer A (10 mM HEPES-KOH (pH 7.9), 1.5 mM MgCl2, 10 mM KCl, 0.5 mM dithiothreitol) with a cocktail of proteinase inhibitors on ice for 10 min as described. Cytoplasmic fraction was collected by centrifuging at 6000 rpm for 30 seconds. Pellets containing nuclei were resuspended in cold high-salt buffer C (20 mM HEPES-KOH (pH 7.9), 25% glycerol, 420 mM NaCl, 1.5 mM MgCl2, 0.2 mM EDTA, 0.5 mM dithiothreitol) with a cocktail of proteinase inhibitors on ice for 30 minutes.
# Nur77 [8] = assay: as above; assay type: cell-based
# Experimental: as §3
# T1 sequence (P22736 whole entry): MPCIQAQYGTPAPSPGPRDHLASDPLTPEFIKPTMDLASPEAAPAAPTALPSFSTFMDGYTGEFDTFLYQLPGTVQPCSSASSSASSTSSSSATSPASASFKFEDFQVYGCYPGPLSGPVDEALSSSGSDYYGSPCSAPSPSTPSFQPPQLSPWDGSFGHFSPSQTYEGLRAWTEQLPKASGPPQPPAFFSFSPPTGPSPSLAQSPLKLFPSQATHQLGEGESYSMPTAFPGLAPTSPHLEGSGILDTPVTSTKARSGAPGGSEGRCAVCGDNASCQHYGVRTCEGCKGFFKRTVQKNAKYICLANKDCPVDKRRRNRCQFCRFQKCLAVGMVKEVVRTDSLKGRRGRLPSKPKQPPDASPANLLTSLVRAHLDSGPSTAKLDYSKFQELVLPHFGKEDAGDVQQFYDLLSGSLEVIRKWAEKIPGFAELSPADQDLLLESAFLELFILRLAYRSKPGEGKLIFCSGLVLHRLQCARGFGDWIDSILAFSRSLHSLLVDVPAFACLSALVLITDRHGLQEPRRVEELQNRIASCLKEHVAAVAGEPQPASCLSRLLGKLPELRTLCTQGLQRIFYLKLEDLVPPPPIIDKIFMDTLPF
# T2 sequence (P22736 360-595 limits assumed): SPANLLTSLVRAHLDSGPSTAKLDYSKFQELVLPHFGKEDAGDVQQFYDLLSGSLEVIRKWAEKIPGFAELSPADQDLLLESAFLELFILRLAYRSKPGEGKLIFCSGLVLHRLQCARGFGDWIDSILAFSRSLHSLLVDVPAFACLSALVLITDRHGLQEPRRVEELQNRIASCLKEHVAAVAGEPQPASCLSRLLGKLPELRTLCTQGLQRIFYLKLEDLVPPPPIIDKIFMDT
# T2 sequence (P10415 whole entry partner, the tested form may be a part): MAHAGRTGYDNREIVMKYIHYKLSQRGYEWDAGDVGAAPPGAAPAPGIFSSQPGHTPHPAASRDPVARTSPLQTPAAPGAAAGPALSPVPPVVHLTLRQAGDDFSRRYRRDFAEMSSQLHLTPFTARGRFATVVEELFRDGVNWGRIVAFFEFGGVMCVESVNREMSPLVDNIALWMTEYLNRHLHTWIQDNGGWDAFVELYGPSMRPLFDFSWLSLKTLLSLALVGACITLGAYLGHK
structure (smiles),measurement,setting,value
"FC(F)(F)c1ccc([C+](c2c[nH]c3ccccc23)c2c[nH]c3ccccc23)cc1 [Compound 1, Bis(1H-indol-3-yl)(4-(trifluoromethyl)phenyl)methylium methanesulfonate]",apoptotic cells (DAPI staining),SW480 cells,about 60%
same,Nur77 interaction with Bcl-2 (Co-IP),[1]; Nur77 transfected in HeLa cells,interacted with Bcl-2
same,endogenous Nur77 immunoprecipitated with endogenous Bcl-2,[1]; anti-Bcl-2 antibody,specifically immunoprecipitated together with endogenous Bcl-2
same,Nur77 or Nur77-LBD interaction with Bcl-2 (Co-IP),[1]; transfected in HEK293T cells,interacted with Bcl-2
same,expression levels of mTOR marker p-4EBP1,[2]; 0.75 μM,reduced the expression levels
same,expression levels of mTOR markers p-S6 and p-4EBP1,[2]; 1 μM,reduced the expression levels
same,apoptosis in tumor specimens (TUNEL assay),"SW620 xenograft tumor; SW620 xenograft, compared to control tumor",extensive apoptosis
same,growth of SW620 xenograft tumor,"SW620 xenograft tumor; nude mice, oral, once a day (FIGS. 6A-6B)",inhibited the growth of SW620 xenograft tumor in a dose and time-dependent manner
same,induction of Nur77 expression,"Nur77 [3]; Compound 1 0.5 μM, BI2030 1 μM, 2 hours (FIG. 5)",incapable of inducing Nur77 expression
same,Nur77 mitochondrial accumulation / targeting,"Nur77 [3]; heavy membrane fraction, Compound 1 tested together with BI2030",able to induce mitochondrial targeting of BI2030-induced Nur77 protein
same,IC50,HCT116 cancer cells,< 500 nM
same,apoptotic effect (Annexin V/PI staining),Bcl-2−/−HeLa cells,7.95%
same,apoptotic effect (Annexin V/PI staining),Nur77−/−HeLa cells [4],3.25%
same,induction of PARP cleavage and caspase 3 activation,Nur77−/−HeLa cells [5],strongly suppressed
same,apoptotic effect (Annexin V/PI staining),parental HeLa cells,35.55% and 24.59%
same,Nur77-LBD pulled down (GST-pull down),[6],concentration dependent manner
same,reporter transcriptional activity,pBind-RXRa-LBD and Nur77,dose dependently induced the reporter activity
same,transfected GFP-Nur77 in heavy membrane (HM) fraction,Nur77 [7]; cellular fractionation,accumulated in the mitochondria-enriched heavy membrane (HM) fraction
same,Myc-Nur77 in heavy membrane (HM) fraction,"Nur77 [7]; mitochondria fractionation, 1μM",accumulated in the mitochondria-enriched heavy membrane (HM) fraction
same,transfected GFP-Nur77-LBD colocalization with Hsp60,Nur77 [8]; confocal microscopy and cellular fractionation,colocalized extensively with the mitochondria-specific Hsp60 protein
same,Myc-Nur77-LBD colocalization with mitochondria,Nur77 [8]; immunostaining,colocalized extensively with the mitochondria

# Source: patent US20210024499A1, “OXIDIZED BIS(3-INDOLYL)METHANES AND USES THEREOF” (Sanford Burnam Prebys Medical Discovery Institute, priority 2018, published 2021)
